# Values quoted from earlier work in patent publication US10130562B2, “Monomer mixture for the preparation of dental materials” (Ivoclar Vivadent AG, priority 2014, dated 2018).
# Legend:
# rat = conditions: in vivo
structure (smiles),measurement,setting,value
"C=C(C)C(=O)OCCOCCOCCOC(=O)C(=C)C [TEGDMA, triethylene glycol dimethacrylate]",gene mutations in the DNA molecules of mammals,DNA molecules of mammals,leads to gene mutations
same,LD50,rat,> 5000 mg/kg
